Earlier results as cited in patent US6645974B2, “Androgen receptor modulators and methods for use thereof” (Merck & Co., Inc., priority 2001, dated 2003).
Where a name gives a salt, the structure may show the parent alone.

Tests used:
[1] = after 7 years of treatment
[2] = postmenopausal osteoporotic women, median of 22 months of treatment

Compound | increase in spinal BMD [1] | reduction in nonvertebral fractures [2] | reduction in spine fractures [2]
NCCCC(O)(P(=O)(O)O)P(=O)(O)O [alendronate, 4-amino-1-hydroxybutylidene-1,1-bisphosphonic acid monosodium salt, trihydrate] | ≤ 11% | – | –
hPTH(1-34): human parathyroid hormone 1-34 fragment (SVSEIQLMHNLGKHLNSMERVEWLRKKLQDVHNF; Parathyroid hormone; UniProt P01270 32-65, looked up, fragment) | – | 54% | ≥ 65%
